Each compound was assayed against T1, androgen receptor (AR) (Homo sapiens, UniProt P10275) (assay: Antagonism of compounds on nuclear translocation of androgen receptor (PathHunter NHR cell lines)). Conditions: antagonist mode, agonist 6a-Fluorotestosterone 0.06 μM (EC80).
T1 sequence (P10275 1-920): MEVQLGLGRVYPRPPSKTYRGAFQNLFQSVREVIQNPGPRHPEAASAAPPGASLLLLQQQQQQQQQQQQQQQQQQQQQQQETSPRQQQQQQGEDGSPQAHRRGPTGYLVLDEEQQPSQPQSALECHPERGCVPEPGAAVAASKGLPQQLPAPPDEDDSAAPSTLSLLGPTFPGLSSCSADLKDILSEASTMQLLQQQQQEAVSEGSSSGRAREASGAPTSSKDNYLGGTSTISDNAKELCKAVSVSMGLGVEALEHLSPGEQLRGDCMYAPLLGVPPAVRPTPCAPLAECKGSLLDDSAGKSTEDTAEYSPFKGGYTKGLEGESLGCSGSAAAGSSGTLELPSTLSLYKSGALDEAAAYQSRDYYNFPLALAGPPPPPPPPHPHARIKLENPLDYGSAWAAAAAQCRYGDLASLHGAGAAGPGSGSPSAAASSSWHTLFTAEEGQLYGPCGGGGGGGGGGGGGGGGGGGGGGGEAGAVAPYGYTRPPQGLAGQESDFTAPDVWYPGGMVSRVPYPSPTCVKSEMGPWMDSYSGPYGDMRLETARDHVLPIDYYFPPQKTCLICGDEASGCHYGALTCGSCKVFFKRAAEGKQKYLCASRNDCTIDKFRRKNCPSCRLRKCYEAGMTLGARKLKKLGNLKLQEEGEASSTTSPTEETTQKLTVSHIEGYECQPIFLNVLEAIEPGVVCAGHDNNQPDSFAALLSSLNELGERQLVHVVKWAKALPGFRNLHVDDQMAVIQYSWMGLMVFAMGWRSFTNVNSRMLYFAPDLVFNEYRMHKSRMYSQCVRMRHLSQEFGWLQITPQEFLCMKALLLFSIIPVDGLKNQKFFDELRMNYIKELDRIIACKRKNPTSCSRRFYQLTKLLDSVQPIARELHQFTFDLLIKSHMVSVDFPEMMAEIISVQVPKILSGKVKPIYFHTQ
Format: cell-based
Procedure: Example 75 Test of Antagonism of Compounds on Nuclear Translocation of Androgen Receptor (AR)
1. PathHunter NHR cell lines were recovered and cultured for amplification.
2. The cells were inoculated onto a 384-well plate prior to testing, and incubated at 37° C. The serum for culture was filtered with charcoal-dextran to reduce the hormone level therein.
3. In the detection of the antagonistic function, a compound was added to the cells and incubated for 60 min. The working concentration of the test compound was diluted from 10 μM at a 3-fold concentration gradient, respectively including: […]. Then, an agonist 6a-Fluorotestosterone 0.06 μM (concentration: EC80, i.e., 80% agonistic compound concentration) was added, and the mixture was incubated at 37° C. or at room temperature for 3-16 h.
4. Signal detection: 12.5 μL or 15 μL (50%, v/v) PathHunter detection mixed solution (kit: DiscoverX product catalog number: 93-0001 series) was added, and incubated at room temperature for 1 h. The chemiluminescent signal was read with a PerkinElmer Envision™ instrument.
5. Data analysis: The compound activity was analyzed with CBIS data analysis software (ChemInnovation, CA). The calculation formula of the inhibition percent of the antagonist is as follows: IC50 inhibition ratio (%)=[…]×(1−(average RLU value of the test compound−average RLU value of the blank control group)/(average RLU value of EC80 control group−average RLU value of the blank control group)).
Work on CCc1nc(-c2cn[nH]c2)c2cc(N3C(=S)N(c4ccc(C#N)c(C(F)(F)F)c4)C(=O)C3(C)C)cc(F)c2n1 [Compound 51] yielded an IC50 of 0.64 µM.
Compound CCc1nc2c(F)cc(-n3c(=S)n(-c4ccc(C#N)c(C(F)(F)F)c4)c4nccc(C)c43)cc2c(=O)[nH]1 [Compound 45] has an IC50 of 2.64 µM.
With CC1(C)C(=O)N(c2ccc(C#N)c(C(F)(F)F)c2)C(=S)N1c1ccc2c(=O)n(CC(F)(F)F)ncc2c1 [Compound 6] the IC50 was 3.07 µM.
For Cc1nc(OCCO)c2cc(N3C(=S)N(c4ccc(C#N)c(C(F)(F)F)c4)C(=O)C3(C)C)ccc2n1 [Compound 9], the IC50 was 5.35 µM.
Compound CCc1nc(OCCN(C)C)c2cc(N3C(=S)N(c4ccc(C#N)c(C(F)(F)F)c4)C(=O)C3(C)C)cc(F)c2n1 [Compound 24] has an IC50 of 3.1 µM.
With CCc1nc2c(F)cc(N3C(=S)N(c4ccc(C#N)c(C(F)(F)F)c4)C(=O)C3(C)C)cn2c(=O)c1O [Compound 39] the IC50 was 5.95 µM.
CNc1ncnc2cc(N3C(=S)N(c4ccc(C#N)c(C(F)(F)F)c4)C(=O)C3(C)C)ccc12 [Compound 1] was tested, and the IC50 was over 10 µM.
With CC1(C)C(=O)N(c2ccc(C#N)c(C(F)(F)F)c2)C(=S)N1c1cc(F)c2nc(OCCO)cc(=O)n2c1 [Compound 67] the IC50 was 2.3 µM.
Work on CCc1nc(OCCCS(C)(=O)=O)c2cc(N3C(=S)N(c4ccc(C#N)c(C(F)(F)F)c4)C(=O)C3(C)C)cc(F)c2n1 [Compound 22] yielded an IC50 of 2.36 µM.
CCc1nc2ccc(N3C(=S)N(c4ccc(C#N)c(C(F)(F)F)c4)C(=O)C3(C)C)cn2c(=O)c1OCCOC [Compound 37] gave an IC50 of 4.47 µM.
CC1(C)C(=O)N(c2ccc(C#N)c(C(F)(F)F)c2)C(=S)N1c1cc(F)c2ncnc(OCCO)c2c1 [Compound 13] gave an IC50 of 6.02 µM.
With CCc1nc2ccc(N3C(=S)N(c4ccc(C#N)c(C(F)(F)F)c4)C(=O)C3(C)C)cn2c(=O)c1O [Compound 33] the IC50 was 9.58 µM.
CCc1cc(=O)n2cc(N3C(=S)N(c4ccc(C#N)c(C(F)(F)F)c4)C(=O)C3(C)C)cc(C)c2n1 [Compound 60] gave an IC50 of 1.83 µM.
In the case of CC1(C)C(=O)N(c2cnc(C#N)c(C(F)(F)F)c2)C(=S)N1c1cc(F)c2nc(C3CC3)nc(OCCO)c2c1 [Compound 23], the IC50 is reported as 1.15 µM.
For CNc1nc(OCCO)c2cc(N3C(=S)N(c4ccc(C#N)c(C(F)(F)F)c4)C(=O)C3(C)C)ccc2n1 [Compound 16], the IC50 was 3.91 µM.
For CCc1nc(OC2CCOCC2)c2cc(N3C(=S)N(c4ccc(C#N)c(C(F)(F)F)c4)C(=O)C3(C)C)cc(F)c2n1 [Compound 19], the IC50 was 1.86 µM.
CCOc1nc(OCCO)c2cc(N3C(=S)N(c4cnc(C#N)c(C(F)(F)F)c4)C(=O)C3(C)C)cc(F)c2n1 [Compound 72] gave an IC50 of 2.41 µM.
For CCc1cc(=O)n2cc(N3C(=S)N(c4ccc(C#N)c(C(F)(F)F)c4)C(=O)C3(C)C)cc(OC)c2n1 [Compound 57], the IC50 was 5.47 µM.
Compound CC1(C)C(=O)N(c2ccc(C#N)c(C(F)(F)F)c2)C(=S)N1c1ccc2c(cnn2C2COCC2O)c1 (stereo not drawn) [Compound 7] has an IC50 of 4.26 µM.
CCc1nc(OCCO)c2cc(N3C(=S)N(c4ccc(C#N)c(C(F)F)c4)C(=O)C3(C)C)ccc2n1 [Compound 48] showed an IC50 of 3.67 µM.
CCc1nc2ccc(-n3c(=S)n(-c4ccc(C#N)c(C(F)(F)F)c4)c4nccc(C)c43)cc2c(=O)[nH]1 [Compound 56] showed an IC50 of 2.86 µM.
For COc1nc(OCCO)c2cc(N3C(=S)N(c4ccc(C#N)c(C(F)(F)F)c4)C(=O)C3(C)C)cc(F)c2n1 [Compound 71], the IC50 was 2.76 µM.
For CCc1nc2c(F)cc(N3C(=S)N(c4ccc(C#N)c(C(F)(F)F)c4)C(=O)C3(C)C)cn2c(=O)c1OCCOC [Compound 40], the IC50 was 2.15 µM.
In the case of CC1(C)C(=O)N(c2cnc(C#N)c(C(F)(F)F)c2)C(=S)N1c1cc(F)c2nc(C(F)F)cc(=O)n2c1 [Compound 74], the IC50 is reported as 2.96 µM.
With CCc1nc(OCCO)c2cc(N3C(=S)N(c4cnc(C#N)c(C(F)(F)F)c4)C(=O)C34CCC4)cc(F)c2n1 [Compound 25] the IC50 was 1.22 µM.
For CCOc1cc(=O)n2cc(N3C(=S)N(c4ccc(C#N)c(C(F)(F)F)c4)C(=O)C3(C)C)cc(F)c2n1 [Compound 55], the IC50 was 1.4 µM.
In the case of CCc1cc(=O)n2cc(-n3c(=S)n(-c4ccc(C#N)c(C(F)(F)F)c4)c4nccc(C)c43)cc(F)c2n1 [Compound 66], the IC50 is reported as 7.12 µM.

Source: patent US11866433B2, “Diarylthiohydantoin compound as androgen receptor antagonist” (CHIA TAI TIANQING PHARMACEUTICAL GROUP CO., LTD., priority 2017, dated 2024)
